This passage reports Kd and tumor growth results from publication PMC8344021, “Discovery of Small Molecule Bak Activator for Lung Cancer Therapy” (Theranostics, 2021).

What is called Kd is the constant that tells how readily two partners part at equilibrium. Higher therefore signals weaker binding.

The target in assay [1] is T1, human Bak protein (WT) (Homo sapiens, UniProt Q16611).
T1 construct: His6; made in house; host or cells: Escherichia coli BL21 DE3
Put plainly: Isothermal titration calorimetry (ITC). To be noted: 25 °C, one-site binding. How it is done: (§1) The binding affinity of BKA-073 with Bak protein was examined by isothermal titration calorimetry (ITC) assay as described, [28]. ITC assay was carried out in the auto-iTC200 instrument (MicroCal, GE) at 25 °C. Purified recombinant human or mouse Bak protein was loaded into a 96 Deepwell PP plate. BKA-073 compound was then titrated stepwise into the protein for a total of 16 injections. Reference power and initial delay were set as 5 µCal/sec and 60s, respectively. A string speed of 750 rpm was used for the ITC measurements. The binding constant (Kd) value was determined by fitting the titration curve to a one-site binding mode, using the Origin software provided by the manufacturer.
To confirm the binding of BKA-073 with Bak, we first conducted a competitive fluorescence polarization (FP) assay using purified human Bak protein, fluorescent Bak BH3 domain peptide, and BKA-073 as described, [37]-[40]. […] There are multiple amino acid differences in the BH3 domains between Bak and other Bcl2 family members, which helps to explain why BKA-073 only binds to Bak but not to other Bcl2 family members (i.e. Bax, Bcl2, Bcl-XL, Bcl-w and Mcl-1). In addition to the FP assay, isothermal titration calorimetry (ITC) was also employed to measure Bak/BKA-073 binding. […] In addition to human Bak/BKA-073 binding, we measured mouse Bak/BKA-073 binding using ITC.
On the technique in general: In ITC the heat of successive injections is recorded.

Assay [2] deals with Bak-/- A549 xenografts. In words: Bak-/- A549 xenografts, tumor growth. The class given is in vivo, Nu/Nu nude mice. To be noted: 12.5mg/kg/d i.p., 28 days. How it is done: Six-week-old female Nu/Nu nude mice were purchased from Envigo (Indianapolis, IN) and housed under pathogen-free conditions in microisolator cages. The animal propagation protocol was approved by the Emory Institutional Animal Care and Use Committee (IACUC) and the Emory Animal Ethics Committee. 3×10^6 lung cancer cells were injected into subcutaneous tissue in the flank region of nude mice. The tumors were allowed to grow to an average volume of 150~200 mm^3 prior to initiation of therapy as previously described, [29]. Patient-derived xenografts (PDXs, TKO-002 and TKO-005) were established as part of an IRB-approved phase II co-clinical trial of arsenic trioxide in patients with relapsed SCLC who had failed standard platinum-based chemotherapy. Tumor samples were obtained by image-guided biopsy and were directly implanted into Nu/Nu nude mice without intervening propagation in plastic culture plates. Direct serial propagation of growing tumor occurred for up to 5 generations. The animal propagation protocol was approved by the Emory IACUC and the Emory Animal Ethics Committee. Mice with SCLC and NSCLC xenografts or PDXs were treated with BKA-073 intraperitoneally (i.p.) or venetoclax orally as indicated. During treatment, tumor volume (V) was measured by caliper measurements once every two days as described previously. Mice were euthanized by CO2 inhalation at the end of treatment. […]

The target in assay [3] is T2, mouse Bak protein (Mus musculus, UniProt O08734).
T2 construct: His tag; made in house; host or cells: Escherichia coli BL21 DE3
In words: Isothermal titration calorimetry (ITC), mouse protein. The class given is binding. To be noted: mouse wild type Bak. The procedure: as §1
Figure S3. […] The binding constant (KD) value was determined by fitting of the titration curve to a 1- […]
(1 x 10^5 cells) was transferred to a 5 ml culture tube, followed by the addition of 5 μl of FITC Annexin V and 5 μl propidium iodide (PI). […] Samples were analyzed by flow cytometry (BD FACSCantoTMII, BD Biosciences, San Jose, CA). ∆% cell death was calculated with the formula: (% cell death treated - % cell death non-treated) as described […]
Fluorescence polarization (FP) assay
Fluorescence polarization assay was carried out as described previously. […] The FP values (in millipolarization units) were measured using a fluorescence microplate reader at 485/530 nm (Gemini XPS, Molecular Devices). […]

Molecules are shown by their SMILES.

T2 sequence (O08734 whole entry): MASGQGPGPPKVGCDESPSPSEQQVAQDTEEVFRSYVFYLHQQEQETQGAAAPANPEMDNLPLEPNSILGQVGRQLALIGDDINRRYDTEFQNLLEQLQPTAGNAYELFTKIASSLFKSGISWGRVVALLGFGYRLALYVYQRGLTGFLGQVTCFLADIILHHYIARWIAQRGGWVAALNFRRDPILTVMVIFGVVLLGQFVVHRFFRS
T1 sequence (Q16611 1-186 limits assumed): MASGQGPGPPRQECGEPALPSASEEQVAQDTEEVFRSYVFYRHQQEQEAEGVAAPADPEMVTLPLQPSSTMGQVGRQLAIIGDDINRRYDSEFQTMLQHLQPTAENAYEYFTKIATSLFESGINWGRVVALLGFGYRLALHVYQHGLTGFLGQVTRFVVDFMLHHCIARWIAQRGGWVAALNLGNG

On to `COc1ccc2nc3ccccc3c(NCCNCC(C)O)c2c1` (stereo not drawn) [BKA-073], for which the equilibrium dissociation constant (Kd) in assay [1] came to 88.6 ± 5.73 nM; in assay [3], 93.4 ± 7.91 nM. In assay [2], the tumor growth entry was “no inhibitory effect”.
